This is an account of results in patent publication US20110144056A1, “PYRAZOLE DERIVATIVES USEFUL AS INHIBITORS OF FAAH” (priority 2008, published 2011).

In assay [1] the target is T1, FAAH (Rattus norvegicus, UniProt P97612).
T1 construct: expressed in transfected cells; cDNA by RT-PCR from brain cDNA (BD Biosciences)
T1 sequence (P97612 1-579): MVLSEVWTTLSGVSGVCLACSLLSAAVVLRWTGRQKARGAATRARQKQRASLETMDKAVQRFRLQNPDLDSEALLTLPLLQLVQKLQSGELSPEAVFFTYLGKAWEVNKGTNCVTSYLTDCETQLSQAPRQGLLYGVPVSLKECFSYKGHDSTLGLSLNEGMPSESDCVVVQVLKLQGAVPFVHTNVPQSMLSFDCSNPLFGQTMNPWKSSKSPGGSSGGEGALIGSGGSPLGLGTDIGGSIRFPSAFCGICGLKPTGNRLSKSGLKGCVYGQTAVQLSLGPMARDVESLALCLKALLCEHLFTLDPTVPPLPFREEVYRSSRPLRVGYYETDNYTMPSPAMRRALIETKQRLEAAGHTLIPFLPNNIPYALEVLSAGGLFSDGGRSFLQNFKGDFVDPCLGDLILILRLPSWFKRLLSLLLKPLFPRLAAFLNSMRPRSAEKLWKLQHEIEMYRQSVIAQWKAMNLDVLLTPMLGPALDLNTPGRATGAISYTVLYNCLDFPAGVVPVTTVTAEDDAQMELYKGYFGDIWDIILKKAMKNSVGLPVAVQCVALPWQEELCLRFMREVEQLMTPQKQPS
Briefly: FAAH whole cell assay, CHO cells expressing rat FAAH. In kind it is cell-based. The text has this: (§1) Murine (accession number NM_010173) and Rat FAAH (accession number NM_024132) was amplified by reverse transcriptase polymerase chain reaction (RT-PCR) from brain cDNA (BD Biosciences, San Jose, Calif.) using primers 1 and 2 or primers 1 and 3 respectively (see Table). The resulting PCR product was ligated into pCR4TOPO and DNA sequence confirmed. The full length murine FAAH was subcloned into the mammalian expression vector, pcDEFneo using either EcoRI (murine) or KpnI and EcoRI (rat) restriction sites. Chinese hamster ovary cells (CHO) were transfected following manufacturers protocol (AMAXA). Forty eight hours post transfection, cells were trypsinized and transferred to 96 well plates in Iscove's DMEM media supplemented with 2 mM Glutamine, 10% fetal calf serum, 1 mg/ml geneticin and HT Supplement (0.1 mM sodium hypoxanthine, 0.016 mM thymidine) in order to isolate single clones. Following selection in geneticin, individual clones were selected and FAAH activity was assessed using a whole cell fluorescent anandamide assay, modified from Ramarao et al (2005). Following removal of tissue culture media cells were dislodged following addition of Cellstripper (Mediatech, Inc. Manassas, Va.) and transferred to 96 well black clear bottom assay plate, centrifuged at 1,000 rpm for 3 mins and media removed and replaced with assay buffer (50 mM Tris pH8.0, 1 mM EDTA, 0.1% fatty acid free BSA). The reaction was initiated by addition of fluorescent substrate, AMC Arachidonoyl Amide (Cayman Chemical, Ann Arbor, Mich.) to 1 μM and reaction allowed to proceed for 2 hours at room temperature. Release of fluorescence was monitored in a CytoFluor Multiplate Reader. Cells expressing the highest amount of FAAH activity were selected for study with FAAH inhibitors.
(§2) Assays are performed on either cell lysate or microsome fractions prepared as described or in whole cell format employing either the fluorescent substrate AAMCA (Cayman chemical, Ann Arbor, Mich.,) or ^3H-anandmaide ([ETHANOLAMINE-1-3H]American Radiolabeled Chemicals; 1 mCi/ml). The cell lysate or microsome assay is performed in Costar black wall, clear bottom plates by adding FAAH_CHO (whole cell, cell lysate or microsome) in assay buffer (50 mM Phosphate, pH 8.0, 1 mM EDTA, 200 mM KCl, 0.2% glycerol, 0.1% fatty acid free BSA) to each well, followed by either DMSO or compound and allowed to incubate at 22-25° C. for fifteen minutes. AAMCA substrate was used to achieve a final concentration of 1 μM and reaction allowed to proceed at room temperature for 1-3 hours. Fluorescent release as a measure of FAAH activity was monitored by reading the plate in a CytoFluor Multiplate Reader ([…]). Whole cell assay is conducted with cells harvested after rinsing tissue culture flasks three times with Ca^++Mg^++ free PBS, incubating for 10 mm in Enzyme free dissociation media and centrifuging for 5 minutes at 1,000 rpm in table top centrifuge. Cells are resuspended in assay buffer at desired cell number in (4×10^4 cells/assay in 96-well format; 1×10^4 cells/assay in 384-well format) and assayed as described.

The target of assay [2] is T2, FAAH (Homo sapiens, UniProt O00519).
T2 construct: The full length FAAH was subcloned into the mammalian expression vector, pcDEF.neo; expressed in transfected cells; cDNA from Origene
T2 sequence (O00519 1-579): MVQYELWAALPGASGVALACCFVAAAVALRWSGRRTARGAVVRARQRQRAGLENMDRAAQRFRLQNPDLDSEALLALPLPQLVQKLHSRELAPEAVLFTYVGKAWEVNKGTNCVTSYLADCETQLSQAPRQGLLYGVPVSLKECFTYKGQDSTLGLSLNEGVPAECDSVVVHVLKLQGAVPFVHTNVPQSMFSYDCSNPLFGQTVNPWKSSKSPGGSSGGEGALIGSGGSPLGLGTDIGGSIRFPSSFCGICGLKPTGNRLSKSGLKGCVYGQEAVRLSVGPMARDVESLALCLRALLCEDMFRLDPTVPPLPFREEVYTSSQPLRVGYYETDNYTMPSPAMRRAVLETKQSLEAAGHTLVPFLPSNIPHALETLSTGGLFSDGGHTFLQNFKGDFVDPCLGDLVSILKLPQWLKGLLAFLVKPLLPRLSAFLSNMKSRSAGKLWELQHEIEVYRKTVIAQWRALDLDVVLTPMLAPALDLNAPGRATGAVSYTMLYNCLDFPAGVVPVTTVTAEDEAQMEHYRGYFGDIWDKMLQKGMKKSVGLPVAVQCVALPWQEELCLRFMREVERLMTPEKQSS
Briefly: FAAH enzyme assay, lysate of CHO cells expressing human FAAH. In kind it is biochemical. To be noted: CHO cell lysate, read-out: Human Lysate.
Excerpt: (§3) To assist in assay development stable cell lines for human, murine and rat full length FAAH were developed. Human FAAH cDNA (Accession No: NM_001441.1) was purchased from Origene (Rockville, Md.). The full length FAAH was subcloned into the mammalian expression vector, pcDEF.neo, using XbaI and […] restriction sites and used for stable cell line generation.
CHO cells expressing FAAH were used to prepare either crude cell lysate or microsome fractions. To harvest cells, tissue culture media was decanted, the monolayer washed three times with Ca^++Mg^++ free PBS and cells recovered after 15 min in enzyme free dissociation media (Millipore Corp, Billerica, Mass.). Cells were collected by centrifuging at 2000 rpm for 15 min. and the cell pellet re-suspended with 50 mM HEPES (pH 7.4) containing 1 mM EDTA and the protease inhibitors aprotinin (1 mg/ml) and leupeptin (100 μM). The suspension was sonicated at 4° C. and the cell lysate recovered after centrifuging at 12,000×g (14,600 rpm, SS34 rotor) for 20 min at 4° C. to form a crude pellet of cell debris, nuclei, peroxisomes, lysosomes, and mitochondria; the supernatant or cell lysate was used for FAAH enzyme assay. In some cases, microsomes fractions enriched in FAAH were prepared by centrifuging the cell lysate further at 27,000 rpm (100,000×g) in SW28 rotor for 50 minutes at 4° C. The pellet containing FAAH-enriched microsomes was re-suspend in 50 mM HEPES, (pH 7.4) 1 mM EDTA, and any remaining DNA sheared by passage of material through a 23 gauge needle and aliquots of enzyme were store at −80° C. prior to use.
(American Radiolabeled Chemicals; 1 mCi/ml) with FAAH (Life Sciences (1995), 56, 1999-2005 and Journal of Pharmacology and Experimented Therapeutics (1997), 283, 729-734), Analytical. Biochemistry (2003), 318, 270-5. In addition, routine assays were performed monitoring hydrolysis of arachidonyl-7-amino-4-methylcoumarin amide (AAMCA) by following increase in fluorescence upon release of 7-amino 4-methyl coumarin (λEX=355 nm, (λEM=460 nm). Analytical. Biochemistry (2005). 343, 143-51.
as §2
Alternatively, assays are performed using anandamide [ethanolamine 1-^3H] (specific activity of 10 Ci/mmol) diluted with cold anandamide to achieve a final assay concentration of 1 μM anandamide (˜50,000 cpm). Enzyme (CHO cell lysate, brain or liver homogenate) is incubated in assay buffer (50 mM Phosphate, pH 8.0, 1 mM EDTA, 200 mM KCl, 0.2% glycerol, 0.1% fatty acid free BSA) with inhibitor at 25° C. for 30 minutes. The reaction was terminated by addition of 2 volumes of chloroform:methanol (1:1) and mixed by vortexing. […]

Assay [3] has as its target T2, FAAH. Briefly: FAAH whole cell assay, CHO cells expressing human FAAH. In kind it is cell-based.
Excerpt: as §3, §1, §2

Where [4] appears, read: read-out: FAAH Human Whole Cell IC50.

With `CS(=O)(=O)c1ccc(-c2nn(-c3ccc(F)cc3)cc2Sc2ccc(Cl)cc2)cc1` [Ex 1], the IC50 at FAAH [1] is 18 nM; on FAAH [2], 16 nM; at FAAH [3] (read-out: Human whole cell), 36 nM.

As for `CS(=O)(=O)c1ccc(-c2nn(-c3ccncc3)cc2Sc2ccc(Cl)cc2)cc1` [Ex 5], the IC50 came out at 16 nM against FAAH [1], 28 nM on FAAH [2] and 48 nM at FAAH [3] (read-out: Human whole cell).

On to `CS(=O)(=O)c1ccc(-c2nn(C3CCCC3)cc2Sc2ccc(Cl)cc2)cc1` [Ex 23], for which the figures for the IC50 at FAAH [1], at FAAH [2] and on FAAH [3] (read-out: Human whole cell) were 86 nM, 143 nM and 141 nM, respectively.

As for `CS(=O)(=O)c1ccc(-c2c(Sc3ccc(Cl)cc3)cnn2-c2ccc(F)cc2)cc1` [Ex 25, 4-[(4-Chlorophenyl)thio]-2-(4-fluorophenyl)-3-[4-(methylsulfonyl)phenyl]-1H-pyrazole], the IC50 on FAAH [1] came to 294 nM; at FAAH [2] it was 271 nM; at FAAH [3] (read-out: Human whole cell), 235 nM.

Turning to `[O-][n+]1cccc(-n2cc(Sc3ccc(Cl)cc3)c(-c3ccc(-c4ncon4)cc3)n2)c1` [Example 75], the IC50 against FAAH [1] was 137 nM; at FAAH [2] it was 101 nM; on FAAH [3] (read-out: Human whole cell), 590 nM.

For the compound `Clc1ccc(Sc2cn(-c3ccccc3)nc2-c2ccc(-c3c[nH]nn3)cc2)cc1` [Example 88, 4-(4-{4-[(4-Chlorophenyl)thio]-1-phenyl-1H-pyrazol-3-yl}phenyl)-1H-1,2,3-triazole], the values for the IC50 at FAAH [1], at FAAH [2] and at FAAH [3] (read-out: Human whole cell) were 157 nM, 121 nM and 395 nM, respectively.

For `O=C(NCCCl)c1ccc(-c2nn(-c3ccccc3)cc2Sc2ccc(Cl)cc2)cc1` [Example 121, N-(2-Chloroethyl)-4-{4-[(4-chlorophenyl)thio]-1-phenyl-1H-pyrazol-3-yl}benzamide], the results for the IC50 on FAAH [1], on FAAH [2] and at FAAH [3] (read-out: Human whole cell) were 52 nM, 80 nM and 124 nM, respectively.

Consider `CC(C)(O)c1cnc(-c2nn(-c3ccc(F)cn3)cc2Sc2ccc(Cl)cc2)cn1` [Example 229, 2-{5-[4-[(4-Chlorophenyl)thio]-1-(5-fluoropyridin-2-yl)-1H-pyrazol-3-yl}pyrazin-2-yl]propan-2-ol], for which the IC50 stood at 18 nM against FAAH [1], 26 nM at FAAH [2] and 66 nM on FAAH [3] (read-out: Human whole cell).

For the compound `CCNC(=O)c1ccc2cc(-c3c(Sc4ccc(Cl)cc4)cnn3C3CCCCO3)ccc2n1` (centres unmarked) [Example 402], the IC50 on FAAH [3] (setting [4]) came out at 9.1 nM.

As for `CC(C)(O)c1ccc2cc(-c3c(Sc4ccc(Cl)cc4)cnn3C3CCCCO3)ccc2n1` (centres unmarked) [Example 403], the IC50 at FAAH [3] (setting [4]) turned out to be 63 nM.

With `CC(=O)N1CCc2cc(-c3c(Sc4ccc(Cl)cc4)cnn3C3CCCCO3)ccc2C1` (centres unmarked) [Example 404], the IC50 at FAAH [3] (setting [4]) amounted to 25 nM.

`N#Cc1ccc2cc(-c3c(Sc4ccc(Cl)cc4)cnn3C3CCCCO3)ccc2n1` (centres unmarked) [Example 405]: on FAAH [3] (setting [4]), the IC50 was found to be 35 nM.

`CCOC(=O)c1cnc2cc(-c3c(Sc4ccc(Cl)cc4)cnn3C3CCCCO3)ccc2c1` (centres unmarked) [Example 407]: the IC50 on FAAH [3] (setting [4]) was 1.94 nM.
